# According to PubChem BioAssay (NCI):
#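 Exposure lasted 48 hours, with cells grown in 96-well plates and compounds tested at five concentrations. GI50 marks 50% less growth. TGI marks complete inhibition of growth.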
# Assays:
# Assay in all cases: growth of human tumour cells (NCI), 48 h
# 786-0 renal = test system: 786-0 renal
# A498 renal = test system: A498 renal
# A549 NSCLC = test system: A549 NSCLC
# ACHN renal = test system: ACHN renal
# BT-549 breast = test system: BT-549 breast
# CAKI-1 renal = test system: CAKI-1 renal
# CCRF-CEM leukemia = test system: CCRF-CEM leukemia
# COLO 205 colon = test system: COLO 205 colon
# DU-145 prostate = test system: DU-145 prostate
# EKVX NSCLC = test system: EKVX NSCLC
# HCC-2998 colon = test system: HCC-2998 colon
# HCT-116 colon = test system: HCT-116 colon
# HCT-15 colon = test system: HCT-15 colon
# HL-60(TB) leukemia = test system: HL-60(TB) leukemia
# HOP-62 NSCLC = test system: HOP-62 NSCLC
# HOP-92 NSCLC = test system: HOP-92 NSCLC
# HS 578T breast = test system: HS 578T breast
# HT29 colon = test system: HT29 colon
# IGROV1 ovarian = test system: IGROV1 ovarian
# K-562 leukemia = test system: K-562 leukemia
# LOX IMVI melanoma = test system: LOX IMVI melanoma
# M14 melanoma = test system: M14 melanoma
# MALME-3M melanoma = test system: MALME-3M melanoma
# MCF7 breast = test system: MCF7 breast
# MDA-MB-231 breast = test system: MDA-MB-231 breast
# MDA-MB-435 = test system: MDA-MB-435
# MOLT-4 leukemia = test system: MOLT-4 leukemia
# NCI-H23 lung = test system: NCI-H23 lung
# NCI-H460 lung = test system: NCI-H460 lung
# NCI-H522 lung = test system: NCI-H522 lung
# NCI/ADR-RES ovarian = test system: NCI/ADR-RES ovarian
# OVCAR-3 ovarian = test system: OVCAR-3 ovarian
# OVCAR-4 ovarian = test system: OVCAR-4 ovarian
# OVCAR-5 ovarian = test system: OVCAR-5 ovarian
# OVCAR-8 ovarian = test system: OVCAR-8 ovarian
# PC-3 prostate = test system: PC-3 prostate
# RPMI-8226 leukemia = test system: RPMI-8226 leukemia
# RXF 393 renal = test system: RXF 393 renal
# SF-268 CNS = test system: SF-268 CNS
# SF-295 CNS = test system: SF-295 CNS
# SF-539 CNS = test system: SF-539 CNS
# SK-MEL-2 melanoma = test system: SK-MEL-2 melanoma
# SK-MEL-28 melanoma = test system: SK-MEL-28 melanoma
# SK-MEL-5 melanoma = test system: SK-MEL-5 melanoma
# SK-OV-3 ovarian = test system: SK-OV-3 ovarian
# SN12C renal = test system: SN12C renal
# SNB-19 CNS = test system: SNB-19 CNS
# SNB-75 CNS = test system: SNB-75 CNS
# SW-620 colon = test system: SW-620 colon
# TK-10 renal = test system: TK-10 renal
# U251 CNS = test system: U251 CNS
# UACC-257 melanoma = test system: UACC-257 melanoma
# UACC-62 melanoma = test system: UACC-62 melanoma
# UO-31 renal = test system: UO-31 renal
smiles,measurement,setting,value
CC/C=C\C/C=C\C[C@H]1C/C=C2/C(=O)C=C[C@@H]2C/C=C\CCC(=O)O1,GI50,786-0 renal,1.4 µM
same,TGI,786-0 renal,4.97 µM
same,GI50,A498 renal,5.38 µM
same,TGI,A498 renal,10.2 µM
same,GI50,A549 NSCLC,1.22 µM
same,TGI,A549 NSCLC,10.9 µM
same,GI50,ACHN renal,0.727 µM
same,TGI,ACHN renal,1.49 µM
same,GI50,BT-549 breast,1.1 µM
same,TGI,BT-549 breast,3.61 µM
same,GI50,CAKI-1 renal,1.29 µM
same,TGI,CAKI-1 renal,6.35 µM
same,GI50,CCRF-CEM leukemia,1.13 µM
same,TGI,CCRF-CEM leukemia,7.05 µM
same,GI50,COLO 205 colon,1.04 µM
same,TGI,COLO 205 colon,2.82 µM
same,GI50,DU-145 prostate,1.19 µM
same,TGI,DU-145 prostate,5.04 µM
same,GI50,EKVX NSCLC,1.51 µM
same,TGI,EKVX NSCLC,8.3 µM
same,GI50,HCC-2998 colon,0.871 µM
same,TGI,HCC-2998 colon,2.32 µM
same,GI50,HCT-116 colon,0.634 µM
same,TGI,HCT-116 colon,1.47 µM
same,GI50,HCT-15 colon,0.735 µM
same,TGI,HCT-15 colon,2.15 µM
same,GI50,HL-60(TB) leukemia,1.22 µM
same,TGI,HL-60(TB) leukemia,3.14 µM
same,GI50,HOP-62 NSCLC,1.18 µM
same,TGI,HOP-62 NSCLC,4.65 µM
same,GI50,HOP-92 NSCLC,3.93 µM
same,TGI,HOP-92 NSCLC,10.4 µM
same,GI50,HS 578T breast,6.08 µM
same,TGI,HS 578T breast,33.2 µM
same,GI50,HT29 colon,0.828 µM
same,TGI,HT29 colon,2.04 µM
same,GI50,IGROV1 ovarian,1.57 µM
same,TGI,IGROV1 ovarian,5.9 µM
same,GI50,K-562 leukemia,1.17 µM
same,TGI,K-562 leukemia,9.1 µM
same,GI50,LOX IMVI melanoma,0.563 µM
same,TGI,LOX IMVI melanoma,1.11 µM
same,GI50,M14 melanoma,1.02 µM
same,TGI,M14 melanoma,4.61 µM
same,GI50,MALME-3M melanoma,1.96 µM
same,TGI,MALME-3M melanoma,8.04 µM
same,GI50,MCF7 breast,0.936 µM
same,TGI,MCF7 breast,7.51 µM
same,GI50,MDA-MB-231 breast,1.07 µM
same,TGI,MDA-MB-231 breast,6.03 µM
same,GI50,MDA-MB-435,0.912 µM
same,TGI,MDA-MB-435,2.75 µM
same,GI50,MOLT-4 leukemia,0.976 µM
same,TGI,MOLT-4 leukemia,4.37 µM
same,GI50,NCI-H23 lung,0.793 µM
same,TGI,NCI-H23 lung,2.79 µM
same,GI50,NCI-H460 lung,1.46 µM
same,TGI,NCI-H460 lung,16.3 µM
same,GI50,NCI-H522 lung,0.524 µM
same,TGI,NCI-H522 lung,1.42 µM
same,GI50,NCI/ADR-RES ovarian,0.746 µM
same,TGI,NCI/ADR-RES ovarian,1.91 µM
same,GI50,OVCAR-3 ovarian,1.08 µM
same,TGI,OVCAR-3 ovarian,3.52 µM
same,GI50,OVCAR-4 ovarian,1.32 µM
same,TGI,OVCAR-4 ovarian,5.66 µM
same,GI50,OVCAR-5 ovarian,1.35 µM
same,TGI,OVCAR-5 ovarian,4.95 µM
same,GI50,OVCAR-8 ovarian,1.14 µM
same,TGI,OVCAR-8 ovarian,4.19 µM
same,GI50,PC-3 prostate,1.18 µM
same,TGI,PC-3 prostate,4.36 µM
same,GI50,RPMI-8226 leukemia,0.847 µM
same,TGI,RPMI-8226 leukemia,2.43 µM
same,GI50,RXF 393 renal,0.686 µM
same,TGI,RXF 393 renal,1.56 µM
same,GI50,SF-268 CNS,1.54 µM
same,TGI,SF-268 CNS,9.1 µM
same,GI50,SF-295 CNS,1.83 µM
same,TGI,SF-295 CNS,6.86 µM
same,GI50,SF-539 CNS,0.995 µM
same,TGI,SF-539 CNS,3.46 µM
same,GI50,SK-MEL-2 melanoma,0.871 µM
same,TGI,SK-MEL-2 melanoma,2.42 µM
same,GI50,SK-MEL-28 melanoma,1.02 µM
same,TGI,SK-MEL-28 melanoma,3.14 µM
same,GI50,SK-MEL-5 melanoma,0.776 µM
same,TGI,SK-MEL-5 melanoma,2.1 µM
same,GI50,SK-OV-3 ovarian,7.18 µM
same,TGI,SK-OV-3 ovarian,20.1 µM
same,GI50,SN12C renal,1.12 µM
same,TGI,SN12C renal,9.69 µM
same,GI50,SNB-19 CNS,3.15 µM
same,TGI,SNB-19 CNS,8.45 µM
same,GI50,SNB-75 CNS,1.4 µM
same,TGI,SNB-75 CNS,6.92 µM
same,GI50,SW-620 colon,1.65 µM
same,TGI,SW-620 colon,6.04 µM
same,GI50,TK-10 renal,1.26 µM
same,TGI,TK-10 renal,3.43 µM
same,GI50,U251 CNS,1.16 µM
same,TGI,U251 CNS,3.69 µM
same,GI50,UACC-257 melanoma,1.85 µM
same,TGI,UACC-257 melanoma,7.82 µM
same,GI50,UACC-62 melanoma,0.767 µM
same,TGI,UACC-62 melanoma,2.4 µM
same,GI50,UO-31 renal,1.36 µM
same,TGI,UO-31 renal,4.94 µM
